Measured values as given in patent US8808702B2, “Sulfide, sulfoxide and sulfone chalcone analogues, derivatives thereof and therapeutic uses thereof” (Temple University-of the Commonwealth System of Higher …, priority 2006, dated 2014).
Where two headings read alike, the source gives them in different places.

Columns and labels:
[1] = system: K562 (chronic myelogenous leukaemia); assay: Effect of compounds on tumor cell lines (assay of Latham et al.), K562; format: cell-based; settings: Homo sapiens, K562 cells, examined 96 hours after treatment, 1 μM to 100 μM in DMSO
Method in brief: (§1)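 After 96 h of exposure to compound (1–100 μM in DMSO; one compound at 0.1–100 μM), effects were scored by inverted-microscope inspection, with trypan blue viable counts by hemacytometer when required. Cells were seeded at 2.5×10^4 per well and dosed 24 h after plating.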

[2] = system: DU145 (prostate cancer); assay: Effect of compounds on tumor cell lines (assay of Latham et al.), DU145; format: cell-based; settings: Homo sapiens, DU-145, DU145 cells, examined 96 hours after treatment, 1 μM to 100 μM in DMSO
Method in brief: as §1

[3] = Table 4, read-out: K 562 potency (IC50)
[4] = Table 4, read-out: DU 145 potency (IC50)

| IC50 [1, 3] | IC50 [2, 4] | melting point | IC50 ([1]; Table 1, read-out: K 562 potency (IC50)) | IC50 ([2]; Table 1, read-out: DU 145 potency (IC50)) | IC50 ([1]; Table 4, read-out: K 562 potency (IC50), given as number) | IC50 ([2]; Table 4, read-out: DU 145 potency (IC50), given as number) | SMILES |
| --- | --- | --- | --- | --- | --- | --- | --- |
| 10 to 25 µM | 25 to 50 µM | 152 to 155 °C | – | – | – | – | COc1ccc(/C=C(\C(=O)c2ccc(Br)cc2)S(=O)(=O)Cc2ccc(Cl)cc2)cc1 [Example 395] |
| 1 to 10 µM | 25 to 50 µM | 134 to 138 °C | – | – | – | – | COc1cc(OC)c(/C=C(\C(=O)c2ccc(Cl)cc2)S(=O)(=O)Cc2ccc(F)cc2)c(OC)c1 [Example 400] |
| 10 to 25 µM | 10 to 25 µM | 94 to 108 °C | – | – | – | – | CSc1ccc(/C=C(\C(=O)c2ccc(Cl)cc2)S(=O)(=O)Cc2ccc(Cl)cc2)cc1 [Example 394] |
| 10 to 25 µM | 10 to 25 µM | 195 to 198 °C | – | – | – | – | O=C(/C(=C\c1ccc(O)cc1)S(=O)(=O)Cc1ccc(Cl)c(Cl)c1)c1ccc(Cl)cc1 [Example 366] |
| 10 to 25 µM | 10 to 25 µM | 134 to 139 °C | – | – | – | – | CCOc1cc(/C=C(\C(=O)c2ccc(Cl)cc2)S(=O)(=O)Cc2ccc(Cl)cc2)ccc1O [Example 386] |
| 50 to 100 µM | 50 to 100 µM | 155 to 162 °C | – | – | – | – | CN(C)c1ccc(/C=C(\C(=O)c2ccc(Br)cc2)S(=O)(=O)Cc2ccc(F)cc2)cc1 [Example 408] |
| 10 to 25 µM | 10 to 25 µM | 72 to 78 °C | – | – | – | – | COc1ccc(/C=C(\C(=O)c2ccc(Br)cc2)S(=O)(=O)Cc2ccc(Cl)cc2)c(O)c1 [Example 382] |
| 1 to 10 µM | 1 to 10 µM | 137 to 148 °C | – | – | – | – | O=C(/C(=C\c1ccccc1OCc1ccccc1)S(=O)(=O)Cc1ccccc1Cl)c1ccc(Cl)cc1 [Example 358] |
| 10 to 25 µM | 10 to 25 µM | 169 to 178 °C | – | – | – | – | Cc1ccc(CS(=O)(=O)/C(=C/c2cc(C)cc(C)c2)C(=O)c2ccc(Cl)cc2)cc1 [Example 429] |
| 1 to 10 µM | 10 to 25 µM | 148 to 151 °C | – | – | – | – | COc1ccc(/C=C(\C(=O)c2ccc(Cl)cc2)S(=O)(=O)Cc2ccc(Cl)cc2)c(OC)c1OC [Example 375] |
| 25 to 50 µM | 50 to 100 µM | 128 to 136 °C | – | – | – | – | COc1ccsc1/C=C(\C(=O)c1ccc(Br)cc1)S(=O)(=O)Cc1ccc(Cl)cc1 [Example 387] |
| > 100 µM | > 100 µM | 167 to 180 °C | – | – | – | – | Cc1ccc(CS(=O)(=O)/C(=C/c2c(O)cc(O)cc2O)C(=O)c2ccc(Cl)cc2)cc1 [Example 424] |
| 1 to 10 µM | 10 to 25 µM | 136 to 142 °C | – | – | – | – | O=C(/C(=C\c1ccccc1OCc1ccccc1)S(=O)(=O)Cc1ccc(Cl)cc1)c1ccc(Br)cc1 [Example 381] |
| 1 to 10 µM | 1 to 10 µM | 176 to 182 °C | – | – | – | – | Cc1ccc(CS(=O)(=O)/C(=C/c2cc(C)ccc2C)C(=O)c2ccc(Cl)cc2)cc1 [Example 425] |
| 10 to 25 µM | 10 to 25 µM | 65 to 72 °C | – | – | – | – | CCOc1ccc(/C=C(\C(=O)c2ccc(Cl)cc2)S(=O)(=O)Cc2ccc(C)cc2)cc1OC [Example 435] |
| 25 to 50 µM | 25 to 50 µM | 186 to 192 °C | – | – | – | – | O=C(/C(=C\c1ccc(Br)cc1)S(=O)(=O)Cc1ccccc1Cl)c1ccc(Cl)cc1 [Example 360] |
| 10 to 25 µM | 10 to 25 µM | 186 to 195 °C | – | – | – | – | Cc1ccc(CS(=O)(=O)/C(=C/c2c[nH]c3ccc(Br)cc23)C(=O)c2ccc(Cl)cc2)cc1 [Example 439] |
| 10 to 25 µM | 10 to 25 µM | 62 to 64 °C | – | – | – | – | COc1cc(OC)c(/C=C(\C(=O)c2ccc([N+](=O)[O-])cc2)S(=O)(=O)Cc2ccc(Cl)cc2)c(OC)c1 [Example 379] |
| 10 to 25 µM | 10 to 25 µM | 140 to 143 °C | – | – | – | – | Cc1cc(C)cc(/C=C(\C(=O)c2ccc(Br)cc2)S(=O)(=O)Cc2ccc(F)cc2)c1 [Example 405] |
| – | – | 168 to 170 °C | – | – | > 50 µM | > 50 µM | O=C(/C(=C\c1ccc(Br)cc1)S(=O)(=O)Cc1ccc(I)cc1)c1ccc(Br)cc1 [Example 418] |
| 1 to 10 µM | 1 to 10 µM | 174 to 179 °C | – | – | – | – | Cc1ccsc1/C=C(\C(=O)c1ccc([N+](=O)[O-])cc1)S(=O)(=O)Cc1ccc(Cl)cc1 [Example 389] |

The next lines start with the molecule.

| SMILES | IC50 [1, 3] | IC50 [2, 4] | melting point | IC50 ([1]; Table 1, read-out: K 562 potency (IC50)) | IC50 ([2]; Table 1, read-out: DU 145 potency (IC50)) | IC50 ([1]; Table 4, read-out: K 562 potency (IC50), given as number) | IC50 ([2]; Table 4, read-out: DU 145 potency (IC50), given as number) |
| --- | --- | --- | --- | --- | --- | --- | --- |
| Cc1ccc(CS(=O)(=O)/C(=C/c2ccc(Cl)cc2)C(=O)c2ccc(Cl)cc2)cc1 [Example 434] | 25 to 50 µM | 25 to 50 µM | 128 to 133 °C | – | – | – | – |
| O=C(/C(=C\c1ccc(Br)cc1)S(=O)(=O)Cc1ccc(Cl)cc1)c1ccc(Cl)cc1 [Example 392] | 10 to 25 µM | 10 to 25 µM | 100 to 103 °C | – | – | – | – |
| COc1ccccc1/C=C(\C(=O)c1ccc(Cl)cc1)S(=O)(=O)Cc1ccc(Cl)c(Cl)c1 [Example 364] | 1 to 10 µM | 1 to 10 µM | 154 to 157 °C | – | – | – | – |
| O=C(/C(=C\c1cc([N+](=O)[O-])ccc1F)S(=O)(=O)Cc1ccc(F)cc1)c1ccc(Br)cc1 [Example 403] | 50 to 100 µM | > 100 µM | 172 to 177 °C | – | – | – | – |
| O=C(/C(=C\c1ccc(OCc2ccccc2)cc1)S(=O)(=O)Cc1ccc(Cl)cc1)c1ccc(Cl)cc1 [Example 391] | 1 to 10 µM | 1 to 10 µM | 91 to 99 °C | – | – | – | – |
| Cc1ccsc1/C=C(\C(=O)c1ccc(Cl)cc1)S(=O)(=O)Cc1ccc(F)cc1 [Example 407] | 1 to 10 µM | 10 to 25 µM | 146 to 158 °C | – | – | – | – |
| O=C(/C(=C\c1cc(Cl)cc(Cl)c1Cl)S(=O)(=O)Cc1ccc(Cl)cc1)c1ccc(Br)cc1 [Example 376] | 1 to 10 µM | 1 to 10 µM | 181 to 188 °C | – | – | – | – |
| Cc1ccc(CS(=O)(=O)/C(=C/c2ccc(Br)cc2)C(=O)c2ccc(Cl)cc2)cc1 [Example 433] | 10 to 25 µM | 25 to 50 µM | 160 to 165 °C | – | – | – | – |
| COc1cc(/C=C(\C(=O)c2ccc(Cl)cc2)S(=O)(=O)Cc2ccccc2Cl)cc(OC)c1 [Example 359] | 50 to 100 µM | > 100 µM | 133 to 138 °C | – | – | – | – |
| Cc1ccc(C)c(/C=C(\C(=O)c2ccc(Cl)cc2)S(=O)(=O)Cc2ccc(Cl)cc2)c1 [Example 380] | 10 to 25 µM | 10 to 25 µM | 129 to 136 °C | – | – | – | – |
| Cc1ccc(CS(=O)(=O)/C(=C/c2ccc(N(C)C)cc2)C(=O)c2ccc(Cl)cc2)cc1 [Example 432] | 50 to 100 µM | 50 to 100 µM | 150 to 154 °C | – | – | – | – |
| COc1ccccc1/C=C(\C(=O)c1ccc([N+](=O)[O-])cc1)S(=O)(=O)Cc1ccc(Cl)cc1 [Example 384] | 10 to 25 µM | 10 to 25 µM | 136 to 141 °C | – | – | – | – |
| CCOc1ccc(/C=C(\C(=O)c2ccc(Cl)cc2)S(=O)(=O)Cc2ccc(F)cc2)cc1OC [Example 412] | 25 to 50 µM | 50 to 100 µM | 145 to 149 °C | – | – | – | – |
| COc1ccccc1/C=C(\C(=O)c1ccc(Cl)cc1)S(=O)(=O)Cc1ccc(Cl)cc1 [Example 383] | 25 to 50 µM | 25 to 50 µM | 135 to 142 °C | – | – | – | – |
| Cc1ccc(CS(=O)(=O)/C(=C/c2c[nH]c3ccccc23)C(=O)c2ccc(Cl)cc2)cc1 [Example 430] | > 100 µM | 25 to 50 µM | 160 to 165 °C | – | – | – | – |
| COc1ccc(C(=O)/C(=C\c2ccc(Br)cc2)S(=O)(=O)Cc2ccc(Br)cc2)cc1 [Example 371] | 1 to 10 µM | 1 to 10 µM | 146 to 148 °C | – | – | – | – |
| O=C(/C(=C\c1ccc(-c2ccccc2)cc1)S(=O)(=O)Cc1ccc(Cl)cc1)c1ccc(Cl)cc1 [Example 398] | 25 to 50 µM | 25 to 50 µM | 65 to 72 °C | – | – | – | – |
| O=C(/C(=C\c1ccc(I)cc1)Sc1ccc(Br)cc1)c1ccc(Br)cc1 [Example 45, (E)-1-(4-bromophenyl)-2-(4-bromophenylthio)-3-(4-Iodophenyl)-prop-2-en-1-one] | – | – | 128 to 130 °C | 1 to 10 µM | 1 to 10 µM | – | – |
| Cc1ccc(/C=C(\C(=O)c2ccc([N+](=O)[O-])cc2)S(=O)(=O)Cc2ccc(Cl)cc2)s1 [Example 397] | 10 to 25 µM | 25 to 50 µM | 180 to 182 °C | – | – | – | – |
| Cc1ccc(/C=C(\C(=O)c2ccc(Cl)cc2)S(=O)(=O)Cc2ccc(Cl)cc2Cl)s1 [Example 356] | 25 to 50 µM | 10 to 25 µM | 115 to 117 °C | – | – | – | – |
| O=C(/C(=C\c1ccc(O)c([N+](=O)[O-])c1)S(=O)(=O)Cc1ccc(Br)cc1)c1ccc(Br)cc1 [Example 374] | 1 to 10 µM | 10 to 25 µM | 110 to 112 °C | – | – | – | – |
| CCOc1ccc(/C=C(\C(=O)c2ccc(Cl)cc2)S(=O)(=O)Cc2ccccc2Cl)cc1OC [Example 361] | 10 to 25 µM | 10 to 25 µM | 123 to 128 °C | – | – | – | – |
| Cc1ccc(CS(=O)(=O)/C(=C/c2ccc(C)s2)C(=O)c2ccc(Cl)cc2)cc1 [Example 440] | 25 to 50 µM | 25 to 50 µM | 171 to 178 °C | – | – | – | – |
| Cc1ccc(/C=C(\C(=O)c2ccc(Cl)cc2)S(=O)(=O)Cc2ccc(Cl)cc2)s1 [Example 396] | 1 to 10 µM | 1 to 10 µM | 148 to 152 °C | – | – | – | – |
